In patent US20080021106A1, “CELLULAR UPTAKE OF BIOACTIVE AGENTS” (Aesgen, Inc., priority 1999, published 2008):
Like-named read-outs stand apart in the source and are kept apart here. Values belong to the compound of their own block, whether it stands above or below them. Where a SMILES comes first, the peptide text is derived from it. [ ]: non-standard residue; d: D form. Sar = CNCC(=O)O

Experiments:
Caco-2 cell monolayers [1] = test system: Caco-2 cell monolayers
Method: (§1) Uptake and permeability of each compound was measured in the apical-to-basolateral direction, with and without vehicle.
(§2) Each compound was tritiated. ^14C-mannitol was used as an evaluation of monolayer/cell integrity (i.e. as a low uptake/permeability marker).
(§3) Uptake and Permeability Assessments. Compound cellular uptake into and permeability across Caco-2 monolayers was measured.
(§4) Monolayer integrity was monitored using ^14C-mannitol permeability. Mannitol uptake was also studied.
(§5) ^14C-mannitol and ^3H-drugs were quantified by liquid scintillation counting. For uptake studies, at designated time points (10 sec, 60 sec, and 5 min), the donor solution was aspirated off. The cell monolayer was washed twice with ice cold HBSS to remove any residual binding and then dissolved in 1 ml of the cell solubilizing agent, Solvable®. The cell lysate (0.5 ml) was added to 5 ml scintillation cocktail (Econosafe®) and counted on liquid scintillation counter (Beckman LS5801, Columbia, Md.). For permeability studies, 0.5 ml of received solution was added to 5 ml scintillation cocktail (Econosafe®) and counted on liquid scintillation counter.
(§6) Permeability (3) in each experiment was calculated (FIG. 8-12) using eq 1: [formula] where P is permeability, dM/dt is rate of drug mass accumulation (i.e., radioactivity) in receiver compartment, A is area, and Cd is donor drug concentration (i.e., radioactivity). […] Permeability is an absolute measure (units of cm/Sec or velocity) and can be determined even though the absolute drug concentrations were not known.

Caco-2 cell monolayers [2] = test system: Caco-2 cell monolayers; remark: listed apart in the source
Method: as §1, §2, §3, §4, §5
(§7) Since saturated solutions of unknown concentration of drugs were used, absolute uptake could not be calculated.

Caco-2 cell monolayers [3] = experiment: Caco-2 permeability, apical to basolateral, with and without vehicle; conditions: no vehicle vs with vehicle, 5 min period (FIG. 8-12)
Method: as §1, §2, §3, §4, §5, §6

Caco-2 cell monolayers [4] = experiment: Cellular uptake of tritiated drugs and 14C-mannitol into Caco-2 monolayers, with and without vehicle; conditions: saturated solutions, AES-14 / blank AES-14 vs HBSS, up to 5 min
Method: as §1, §2, §3, §4, §5, §7

effect of Aesgen-14 vehicle on Caco-2 permeability (in words) (Caco-2 cell monolayers [1]): no effect
Structure (SMILES): NC(=O)C[C@H](N)C(=O)O [L-asparagine]

effect of Aesgen-14 vehicle on Caco-2 permeability (in words) (Caco-2 cell monolayers [1]): no effect
Structure (SMILES): NC(=O)CC[C@H](N)C(=O)O [L-glutamine]
enhancement of cellular uptake by vehicle (Caco-2 cell monolayers [2]): To perhaps a lesser extent, vehicle enhanced

effect of vehicle on mannitol permeability (in words) (Caco-2 cell monolayers [1]): no effect | effect of vehicle on mannitol relative uptake (in words) (Caco-2 cell monolayers [2]): no effect
Structure (SMILES): OC[C@@H](O)[C@@H](O)[C@H](O)[C@H](O)CO [Mannitol, mannitol]

effect of Aesgen-14 vehicle on Caco-2 permeability (in words) (Caco-2 cell monolayers [3]): no effect
Structure (SMILES): CN(CC(=O)O)C(=O)CN [glycylsarcosine] (H-Gly-[Sar]-OH)
enhancement of cellular drug uptake by vehicle (relative uptake vehicle vs HBSS) (Caco-2 cell monolayers [4]): about four-fold
